Measured values as given in patent US9329184B2, “Fluorescent probe” (THE UNIVERSITY OF TOKYO, priority 2011, dated 2016).
One block for each compound: values may come before it.

Assays:
[1] = Absorption and fluorescence spectra and pH profiles in sodium phosphate buffer; type: physicochemical; settings: for pH-dependent change of absorbance / λabs / λfl: 0.1 M sodium phosphate buffer containing 1% DMSO; for pH-dependent change of absorbance: pH profile; for λabs / λfl: Table 1
Method: (§1) Fluorescence was measured with an excitation wavelength of 593 nm.
Fluorescence was measured with an excitation wavelength of 505 nm.
Fluorescence was measured with an excitation wavelength of 590 nm.
Absorption and fluorescence spectra as well as pH profiles of 2-Me SiR600 and the acetylated compound thereof (N-Ac-2-Me SiR600) synthesized in Example 2 were measured. […] Therefore, 2-Me SiR600 in which the amino group at the 3-position is acylated can be functioned as a fluorescent probe for detecting enzymatic activity on the basis of absorption wavelength change with a high S/N ratio, without using the intramolecular photoinduced electron transfer.
In a similar manner, absorption and fluorescence spectra as well as pH profiles of 2-COOH SiR600 and the acetylated compound thereof were measured. […] Therefore, it can be used as a fluorescent probe as shown in the following scheme.
Absorption spectrum of Z-DEVD-SiR600 was measured in a 0.1 M sodium phosphate buffer of pH 3 to 10 containing 1% DMSO. The measurement results are shown in FIG. 5, and the photochemical characteristics are shown in Table 3 mentioned below together with the results for SiR600.

caspase-3 = assay: Reaction of fluorescent probe with caspase-3 (absorption/fluorescence before and after); type: biochemical; settings: for absorption maximum wavelength: 20 mM HEPES buffer pH 7.4, 37° C., before/after reaction with caspase-3
Method: as §1
Function of Z-DEVD-SiR600 as a fluorescent probe was evaluated by reacting it with caspase-3. Caspase-3 (0.5 μg) was added to Z-DEVD-SiR600 (2 μM), and the mixture was reacted for 10 hours. The reaction was performed at 37° C. in a 20 mM HEPES buffer (pH 7.4, 0.75 ml) containing 100 μM dithiothreitol (DTT), 10% glycerol, 0.1% CHAPS, 100 mM NaCl, and 0.1% DMSO. The absorption spectra and fluorescence spectra observed before and after the reaction (excitation wavelengths are shown in FIG. 6, (b) and (c), respectively, and the kinetics parameters of the reaction are shown in FIG. 6, (d)).

leucine aminopeptidase = assay: Reaction of fluorescent probe with leucine aminopeptidase (absorption/fluorescence before and after); type: biochemical; settings: for absorption maximum wavelength: 0.1 M sodium phosphate buffer pH 7.4, 37° C., before/after reaction with leucine aminopeptidase
Method: as §1
Function of Leu-SiR600 as a fluorescent probe was evaluated by reacting it with leucine aminopeptidase. Leucine aminopeptidase (0.096 unit) was added to Leu-SiR600 (6 μM), and the mixture was reacted for 2.5 hours. The reaction performed at 37° C. in a 0.1 M sodium phosphate buffer (pH 7.4, 0.75 ml) containing 0.8% DMSO. The absorption spectra and fluorescence spectra observed before and after the reaction are shown in FIG. 7, (b) and (c), respectively.

Compound: CC(=O)Nc1ccc2c(c1)[Si](C)(C)c1cc(N)ccc1C21OC(=O)c2ccccc21 (stereo not drawn) [N-Acetyl-2-COOH SiR600]
- absorption for the visible region ([1]; physiological pH range): not to show absorption for the visible region in the physiological pH range

Compound: Cc1ccccc1C1=C2C=CC(=N)C=C2[Si](C)(C)c2cc(N)ccc21 [2-Me SiR600]
- pH-dependent change of absorbance [1]: did not substantially show pH-dependent change of absorbance
- maximum absorption wavelength ([1]; Example 4): 593 nm
- λabs [1]: 593 nm
- λfl [1]: 613 nm
- ΦFL ([1]; Table 3, pH 7.4): 0.38
- ε ([1]; Table 3, pH 7.4): 91000 M⁻¹ cm⁻¹
- λem ([1]; Table 3, pH 7.4): 613 nm
- λex ([1]; Table 3, pH 7.4): 593 nm
- absorption maximum wavelength (caspase-3): 593 nm
- absorption maximum wavelength (leucine aminopeptidase): 593 nm

Compound: C[Si]1(C)c2cc(N)ccc2C2(OC(=O)c3ccccc32)c2ccc(N)cc21 [2-COOH SiR600]
- pH-dependent change of absorbance [1]: did not substantially show absorbance change at pH higher than the physiological pH region
- ΦFL ([1]; Table 2, pH 7.4): 0.26
- ε ([1]; Table 2, pH 7.4): 4000 M⁻¹ cm⁻¹
- λem ([1]; Table 2, pH 7.4): 610 nm
- λex ([1]; Table 2, pH 7.4): 590 nm

Compound: CC(=O)Nc1ccc2c(c1)[Si](C)(C)C1=CC(=N)C=CC1=C2c1ccccc1C [N-Ac-2-Me SiR600, N-Acetyl-2-Me SiR600]
- pH-dependent change of absorbance [1]: decreased with decrease of pH
- λabs [1]: 505 nm
- λfl [1]: 600 nm
- shift of maximum absorption wavelength compared with 2-Me SiR600 ([1]; acetylation of the amino group at the 3-position): significantly shifted to the shorter wavelength side

- pH-dependent change of absorbance [1]: showed pH-dependent absorbance change
- ΦFL ([1]; Table 3, pH 3.0): 0.19
- ε ([1]; Table 3, pH 3.0): 85000 M⁻¹ cm⁻¹
- λem ([1]; Table 3, pH 3.0): 600 nm
- λex ([1]; Table 3, pH 3.0): 500 nm
- absorption maximum wavelength (caspase-3): around 500 nm
Compound: Z-DEVD-SiR600
- absorption of light around 593 nm ([1]; around the maximum absorption wavelength of SiR600): did not absorb light around the maximum absorption wavelength (593 nm) of SiR600
- fluorescence before and after the reaction with caspase-3 (caspase-3; probe 2 μM, caspase-3 0.5 μg, 10 hours, 37° C., excitation light 593 nm): scarcely observed before the reaction, but extremely strong fluorescence is observed after the reaction

Compound: Cc1ccccc1C1=C2C=CC(=N)C=C2[Si](C)(C)c2cc(NC(=O)[C@H](N)CC(C)C)ccc21 [Leu-SiR600]
- absorption maximum wavelength (leucine aminopeptidase): around 500 nm
- fluorescence before and after the reaction with leucine aminopeptidase (leucine aminopeptidase; probe 6 μM, leucine aminopeptidase 0.096 unit, 2.5 hours, 37° C., excitation light 593 nm): scarcely observed before the reaction, but extremely strong fluorescence is observed after the reaction
